In this assay the target is BTK (Homo sapiens (Human), UniProt Q06187). In words: In vitro BTK kinase assay: BTK-POLYGAT-LS ASSAY.
[1] abbreviates: read-out: IC50 (10 uM ATP), 10 uM ATP, in vitro Btk kinase assay, Example 41.

The structures appear in SMILES notation. Where two headings read alike, the source gives them in different places.

BTK, sequence (Q06187 whole entry): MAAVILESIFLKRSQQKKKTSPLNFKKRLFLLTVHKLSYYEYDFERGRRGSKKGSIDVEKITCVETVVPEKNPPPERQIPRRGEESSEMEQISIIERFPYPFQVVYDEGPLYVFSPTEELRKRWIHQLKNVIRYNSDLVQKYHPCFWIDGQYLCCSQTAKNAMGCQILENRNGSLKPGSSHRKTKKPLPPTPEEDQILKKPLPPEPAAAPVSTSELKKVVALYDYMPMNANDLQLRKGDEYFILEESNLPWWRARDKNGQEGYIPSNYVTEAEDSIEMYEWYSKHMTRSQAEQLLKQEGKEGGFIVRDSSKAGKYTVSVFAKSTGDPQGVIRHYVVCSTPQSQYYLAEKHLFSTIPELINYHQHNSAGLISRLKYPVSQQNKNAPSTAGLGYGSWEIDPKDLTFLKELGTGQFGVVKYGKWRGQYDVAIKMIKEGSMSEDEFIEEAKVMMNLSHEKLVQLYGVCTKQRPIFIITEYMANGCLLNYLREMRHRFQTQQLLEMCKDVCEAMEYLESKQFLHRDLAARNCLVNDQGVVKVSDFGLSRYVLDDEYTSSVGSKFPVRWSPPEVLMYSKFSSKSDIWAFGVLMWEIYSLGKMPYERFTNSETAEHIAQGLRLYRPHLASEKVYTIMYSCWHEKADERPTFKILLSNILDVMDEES

One may read the IC50 as the concentration needed to halve the response being measured. For `Nc1ncnc(N2CCC[C@@H](N3CCCC(Nc4cc(F)cc(Cl)c4)C3=O)C2)c1F` (stereo in doubt) [compound 313, (3R,3′R)-1′-(6-Amino-5-fluoropyrimidin-4-yl)-3-(3-chloro-5-fluorophenylamino)-1,3′-bipiperidin-2-one], the IC50 under setting [1] was less than 0.1 µM. For `Nc1ncnc(N2CCC[C@@H](N3CCCC(Nc4cc(F)cc(Cl)c4)C3=O)C2)c1F` (stereo in doubt) [compound 314, (3S,3′R)-1′-(6-Amino-5-fluoropyrimidin-4-yl)-3-(3-chloro-5-fluorophenylamino)-1,3′-bipiperidin-2-one], the IC50 under setting [1] was less than 0.1 µM.

As for `Nc1ncnc(N2CCC[C@@H](N3CCCC(Nc4ccccc4S(=O)(=O)c4ccccc4)C3=O)C2)c1F` (stereo in doubt) [compound 319, 1′-(6-Amino-5-fluoropyrimidin-4-yl)-3-(2-(phenylsulfonyl)phenylamino)-1,3′-bipiperidin-2-one], the IC50 under setting [1] is less than 0.1 µM. `O=C(Nc1cccc(C2CCCN(c3ncnc4[nH]ccc34)C2)c1)c1ccccc1` (stereo not drawn) [Cmpd 2, N-(3-(1-(7H-pyrrolo[2,3-d]pyrimidin-4-yl)piperidin-3-yl)phenyl)benzamide] gave an IC50 of 1 to 10 µM. As to `O=C(Nc1cccc(C2CCCN(c3ncnc4[nH]ccc34)C2)c1)c1ccc(Cl)cc1` (stereo not drawn) [Cmpd 3, N-(3-(1-(7H-pyrrolo[2,3-d]pyrimidin-4-yl)piperidin-3-yl)phenyl)-4-chlorobenzamide], the IC50 was in the range of 1 to 10 µM. With `O=C(Nc1cccc(C2CCCN(c3ncnc4[nH]ccc34)C2)c1)c1cccc(Cl)c1` (stereo not drawn) [Cmpd 4, N-(3-(1-(7H-pyrrolo[2,3-d]pyrimidin-4-yl)piperidin-3-yl)phenyl)-3-chlorobenzamide], the IC50 lay in the range of 1 to 10 µM.

In the case of `O=C(Nc1cccc(C2CCCN(c3ncnc4[nH]ccc34)C2)c1)c1ccccc1Cl` (stereo not drawn) [Cmpd 5, N-(3-(1-(7H-pyrrolo[2,3-d]pyrimidin-4-yl)piperidin-3-yl)phenyl)-2-chlorobenzamide], under setting [1], the IC50 was greater than 10 µM. Regarding `COc1ccccc1C(=O)Nc1cccc(C2CCCN(c3ncnc4[nH]ccc34)C2)c1` (stereo not drawn) [Cmpd 6, N-(3-(1-(7H-pyrrolo[2,3-d]pyrimidin-4-yl)piperidin-3-yl)phenyl)-2-methoxybenzamide], under setting [1], the IC50 was greater than 10 µM.

As to `COc1cccc(C(=O)Nc2cccc(C3CCCN(c4ncnc5[nH]ccc45)C3)c2)c1` (stereo not drawn) [Cmpd 7, N-(3-(1-(7H-pyrrolo[2,3-d]pyrimidin-4-yl)piperidin-3-yl)phenyl)-3-methoxybenzamide], the IC50 under setting [1] is greater than 10 µM. Consider `COc1ccc(C(=O)Nc2cccc(C3CCCN(c4ncnc5[nH]ccc45)C3)c2)cc1` (stereo not drawn) [Cmpd 8, N-(3-(1-(7H-pyrrolo[2,3-d]pyrimidin-4-yl)piperidin-3-yl)phenyl)-4-methoxybenzamide], for which the IC50 under setting [1] is greater than 10 µM. As for `O=C(Cc1ccccc1)Nc1cccc(C2CCCN(c3ncnc4[nH]ccc34)C2)c1` (stereo not drawn) [Cmpd 9, N-(3-(1-(7H-pyrrolo[2,3-d]pyrimidin-4-yl)piperidin-3-yl)phenyl)-2-phenylacetamide], under setting [1], the IC50 was greater than 10 µM.

In the case of `O=C(Nc1cccc(C2CCCN(c3ncnc4[nH]ccc34)C2)c1)c1c(Cl)cccc1Cl` (stereo not drawn) [Cmpd 10, N-(3-(1-(7H-pyrrolo[2,3-d]pyrimidin-4-yl)piperidin-3-yl)phenyl)-2,6-dichlorobenzamide], the 50% inhibitory concentration (IC50) under setting [1] is greater than 10 µM. Turning to `O=C(CNc1ccccc1)Nc1cccc(C2CCCN(c3ncnc4[nH]ccc34)C2)c1` (stereo not drawn) [Cmpd 17, N-(3-(1-(7H-pyrrolo[2,3-d]pyrimidin-4-yl)piperidin-3-yl)phenyl)-2-(phenylamino) acetamide], under setting [1], the IC50 is greater than 10 µM. Compound `O=C(Nc1cccc(C2CCCN(c3ncnc4[nH]ccc34)C2)c1)[C@@H](O)c1ccccc1` (stereo partly drawn) [Cmpd 18, (2S)—N-(3-(1-(7H-pyrrolo[2,3-d]pyrimidin-4-yl)piperidin-3-yl)phenyl)-2-hydroxy-2-phenylacetamide] had an IC50 of 1 to 10 µM. As to `O=C(Nc1cccc(C2CCCN(c3ncnc4[nH]ccc34)C2)c1)[C@H](O)c1ccccc1` (stereo partly drawn) [Cmpd 19, (2R)—N-(3-(1-(7H-pyrrolo[2,3-d]pyrimidin-4-yl)piperidin-3-yl)phenyl)-2-hydroxy-2-phenylacetamide], the IC50 lay within 1 to 10 µM.

With `N[C@H](C(=O)Nc1cccc(C2CCCN(c3ncnc4[nH]ccc34)C2)c1)c1ccccc1` (stereo partly drawn) [Cmpd 20, (2S)—N-(3-(1-(7H-pyrrolo[2,3-d]pyrimidin-4-yl)piperidin-3-yl)phenyl)-2-amino-2-phenylacetamide], the IC50 under setting [1] was greater than 10 µM. Take `N[C@@H](C(=O)Nc1cccc(C2CCCN(c3ncnc4[nH]ccc34)C2)c1)c1ccccc1` (stereo partly drawn) [Cmpd 21, (2R)—N-(3-(1-(7H-pyrrolo[2,3-d]pyrimidin-4-yl)piperidin-3-yl)phenyl)-2-amino-2-phenylacetamide]: under setting [1], the IC50 is greater than 10 µM. In the case of `O=C(COc1ccccc1)Nc1cccc(C2CCCN(c3ncnc4[nH]ccc34)C2)c1` (stereo not drawn) [Cmpd 22, N-(3-(1-(7H-pyrrolo[2,3-d]pyrimidin-4-yl)piperidin-3-yl)phenyl)-2-phenoxyacetamide], the IC50 was in the range of 1 to 10 µM. `O=C(CCc1ccccc1)Nc1cccc(C2CCCN(c3ncnc4[nH]ccc34)C2)c1` (stereo not drawn) [Cmpd 23, N-(3-(1-(7H-pyrrolo[2,3-d]pyrimidin-4-yl)piperidin-3-yl)phenyl)-3-phenylpropanamide] had an IC50 of 1 to 10 µM. `O=C(Nc1cccc(Cl)c1)Nc1cccc(C2CCCN(c3ncnc4[nH]ccc34)C2)c1` (stereo not drawn) [Cmpd 26, 1-(3-(1-(7H-pyrrolo[2,3-d]pyrimidin-4-yl)piperidin-3-yl)phenyl)-3-(3-chlorophenyl)urea] gave an IC50 of 1 to 10 µM.

Compound `O=C(Nc1ccc(Cl)cc1)Nc1cccc(C2CCCN(c3ncnc4[nH]ccc34)C2)c1` (stereo not drawn) [Cmpd 27, 1-(3-(1-(7H-pyrrolo[2,3-d]pyrimidin-4-yl)piperidin-3-yl)phenyl)-3-(4-chlorophenyl)urea] yielded an IC50 of 1 to 10 µM. Consider `O=C(Nc1ccccc1)Nc1cccc(C2CCN(c3ncnc4[nH]ccc34)C2)c1` (stereo not drawn) [Cmpd 28, 1-(3-(1-(7H-pyrrolo[2,3-d]pyrimidin-4-yl)pyrrolidin-3-yl)phenyl)-3-phenylurea], for which the IC50 lay in the range of 1 to 10 µM. On to `O=C(Nc1cccc(C2CCCN(c3ncnc4[nH]ccc34)C2)c1)Nc1ccccn1` (stereo not drawn) [Cmpd 29, 1-(3-(1-(7H-pyrrolo[2,3-d]pyrimidin-4-yl)piperidin-3-yl)phenyl)-3-(pyridin-2-yl)urea], for which the IC50 lay in the range of 1 to 10 µM. Turning to `O=C(Nc1cccnc1)Nc1cccc(C2CCCN(c3ncnc4[nH]ccc34)C2)c1` (stereo not drawn) [Cmpd 30, 1-(3-(1-(7H-pyrrolo[2,3-d]pyrimidin-4-yl)piperidin-3-yl)phenyl)-3-(pyridin-3-yl)urea], the concentration for half-maximal inhibition (IC50) was 1 to 10 µM.

As for `O=C(Nc1ccncc1)Nc1cccc(C2CCCN(c3ncnc4[nH]ccc34)C2)c1` (stereo not drawn) [Cmpd 31, 1-(3-(1-(7H-pyrrolo[2,3-d]pyrimidin-4-yl)piperidin-3-yl)phenyl)-3-(pyridin-4-yl)urea], under setting [1], the IC50 is greater than 10 µM. The compound `O=C(Nc1ccsc1)Nc1cccc(C2CCCN(c3ncnc4[nH]ccc34)C2)c1` (stereo not drawn) [Cmpd 32, 1-(3-(1-(7H-pyrrolo[2,3-d]pyrimidin-4-yl)piperidin-3-yl)phenyl)-3-(thiophen-3-yl)urea] displayed an IC50 of 1 to 10 µM.

`CCc1cccc(CC)c1NC(=O)Nc1cccc(C2CCCN(c3ncnc4[nH]ccc34)C2)c1` (stereo not drawn) [Cmpd 33, 1-(3-(1-(7H-pyrrolo[2,3-d]pyrimidin-4-yl)piperidin-3-yl)phenyl)-3-(2,6-diethylphenyl)urea] returned an IC50 of 0.1 to 0.999 µM.

Source of the values: patent US9790229B2, “Bruton's tyrosine kinase inhibitors” (priority 2009, dated 2017).
